# ChEMBL document CHEMBL1201862, “PubChem BioAssay data set” (2004)
#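 Dose response: 5 concentrations. Exposure: 48 h. Format: 96-well plates. Endpoint: linear interpolation; highest concentration if not reached. At the GI50, growth is halved.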 Active and inactive are the calls of the source. Rule as the data show it: active = GI50 up to about 1.1 µM and inactive = higher.
# Legend:
# Test in all cases: inhibition of tumour cell growth, NCI panel, 48 h
# Malme-3M = test system: Malme-3M
# NCI-H460 = test system: NCI-H460
# SK-MEL-5 = test system: SK-MEL-5
# SR = test system: SR
# OVCAR-5 = test system: OVCAR-5
# HL-60 = test system: HL-60
# HT-29 = test system: HT-29
# DU-145 = test system: DU-145
# M14 = test system: M14
# HCT-116 = test system: HCT-116
# SNB-19 = test system: SNB-19
# SF-295 = test system: SF-295
# SNB-75 = test system: SNB-75
# CAKI-1 = test system: CAKI-1
# T47D = test system: T47D
# SF-268 = test system: SF-268
# LOX IMVI = test system: LOX IMVI
# HOP-62 = test system: HOP-62
# SW-620 = test system: SW-620
# A549 = test system: A549
# PC-3 = test system: PC-3
# EKVX = test system: EKVX
# NCI-H226 = test system: NCI-H226
# Hs-578T = test system: Hs-578T
# MDA-MB-435 = test system: MDA-MB-435
# NCI-H23 = test system: NCI-H23
# HOP-92 = test system: HOP-92
# TK-10 = test system: TK-10
# MDA-MB-231 = test system: MDA-MB-231
# UACC-257 = test system: UACC-257
# COLO 205 = test system: COLO 205
# OVCAR-4 = test system: OVCAR-4
# SK-MEL-2 = test system: SK-MEL-2
# MDA-N = test system: MDA-N
# SN12C = test system: SN12C
# U-251 = test system: U-251
# CCRF-CEM = test system: CCRF-CEM
# IGROV-1 = test system: IGROV-1
# OVCAR-3 = test system: OVCAR-3
# KM12 = test system: KM12
# ACHN = test system: ACHN
# SK-MEL-28 = test system: SK-MEL-28
# MOLT-4 = test system: MOLT-4
# NCI/ADR-RES = test system: NCI/ADR-RES
# MCF7 = test system: MCF7
# SF-539 = test system: SF-539
# UO-31 = test system: UO-31
# 786-0 = test system: 786-0
# HCT-15 = test system: HCT-15
# OVCAR-8 = test system: OVCAR-8
# K562 = test system: K562
# NCI-H522 = test system: NCI-H522
# RPMI-8226 = test system: RPMI-8226
# HCC 2998 = test system: HCC 2998
smiles,measurement,setting,value
Nc1ccc(C(=O)O)cc1 [AMINOBENZOIC ACID],GI50,Malme-3M,> 100 µM (inactive)
same,GI50,NCI-H460,> 100 µM (inactive)
same,GI50,SK-MEL-5,> 100 µM (inactive)
same,GI50,SR,> 100 µM (inactive)
same,GI50,OVCAR-5,> 100 µM (inactive)
same,GI50,HL-60,> 100 µM (inactive)
same,GI50,HT-29,> 100 µM (inactive)
same,GI50,DU-145,> 100 µM (inactive)
same,GI50,M14,> 100 µM (inactive)
same,GI50,HCT-116,> 100 µM (inactive)
same,GI50,SNB-19,> 100 µM (inactive)
same,GI50,SF-295,> 100 µM (inactive)
same,GI50,SNB-75,> 100 µM (inactive)
same,GI50,CAKI-1,> 100 µM (inactive)
same,GI50,T47D,> 100 µM (inactive)
same,GI50,SF-268,> 100 µM (inactive)
same,GI50,LOX IMVI,> 100 µM (inactive)
same,GI50,HOP-62,> 100 µM (inactive)
same,GI50,SW-620,> 100 µM (inactive)
same,GI50,A549,> 100 µM (inactive)
same,GI50,PC-3,> 100 µM (inactive)
same,GI50,EKVX,> 100 µM (inactive)
same,GI50,NCI-H226,> 100 µM (inactive)
same,GI50,Hs-578T,> 100 µM (inactive)
same,GI50,MDA-MB-435,> 100 µM (inactive)
same,GI50,NCI-H23,> 100 µM (inactive)
same,GI50,HOP-92,> 100 µM (inactive)
same,GI50,TK-10,> 100 µM (inactive)
same,GI50,MDA-MB-231,28.1 µM (inactive)
same,GI50,UACC-257,> 100 µM (inactive)
same,GI50,COLO 205,> 100 µM (inactive)
same,GI50,OVCAR-4,> 100 µM (inactive)
same,GI50,SK-MEL-2,> 100 µM (inactive)
same,GI50,MDA-N,> 100 µM (inactive)
same,GI50,SN12C,28.7 µM (inactive)
same,GI50,U-251,> 100 µM (inactive)
same,GI50,CCRF-CEM,> 100 µM (inactive)
same,GI50,IGROV-1,> 100 µM (inactive)
same,GI50,OVCAR-3,> 100 µM (inactive)
same,GI50,KM12,> 100 µM (inactive)
same,GI50,ACHN,> 100 µM (inactive)
same,GI50,SK-MEL-28,> 100 µM (inactive)
same,GI50,MOLT-4,> 100 µM (inactive)
same,GI50,NCI/ADR-RES,> 100 µM (inactive)
same,GI50,MCF7,> 100 µM (inactive)
same,GI50,SF-539,> 100 µM (inactive)
same,GI50,UO-31,> 100 µM (inactive)
same,GI50,786-0,> 100 µM (inactive)
same,GI50,HCT-15,21.1 µM
same,GI50,OVCAR-8,> 100 µM (inactive)
same,GI50,K562,> 100 µM (inactive)
same,GI50,NCI-H522,> 100 µM (inactive)
same,GI50,RPMI-8226,> 100 µM (inactive)
same,GI50,HCC 2998,> 100 µM (inactive)
